Our source for the GI50 and TGI values is PubChem BioAssay (NCI).

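48-hour exposure; five concentrations; linearly interpolated endpoints. The concentration for 50% growth inhibition is given as GI50. TGI is the concentration that stops growth completely.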

One assay concerns HCC-2998 colon. Put plainly: inhibition of tumour cell growth, NCI panel, 48 h.
In the case of `O=CN1CCN(C(=O)c2ccco2)C1=S`, the GI50 was 13.4 µM and the TGI was 27.2 µM.

For the compound `O=C1/C(=C/c2ccc(Cl)cc2)CCCc2ccc(F)cc21`, the GI50 is 21.2 µM and the TGI was determined as 54.9 µM.

`CC(=O)C1(O)CCC2(O)C3(O)CC=C4CC(O)CCC4(C)C3CC(OC(=O)c3ccc(O)cc3)C12C` (centres undefined) came in with a TGI of over 100 µM.

In turn, `COCC#C[C@@]1(O)CCCCC1CC(OC)OC` (some centres undefined) registered a TGI of over 100 µM.

Turning to `C=C1CC(COc2ccc3c(C)c(C)c(=O)oc3c2C)(c2ccccc2)OC1=O` (centres undefined), the TGI came out at 7.12 µM.

The compound `CC(=O)OCC(=O)O[C@@H]1[C@H]2[C@@H](OC(=O)c3ccccc3)[C@@H](C)C[C@]2(O)[C@H](OC(C)=O)[C@@]2(C)C[C@]1(OC(C)=O)C[C@H]1C(=O)C(C)(C)[C@@H](OC(C)=O)[C@@H]12` returned a TGI of over 25 µM.

The compound `O=C(Sc1c(-c2ccccc2)c(=O)n(-c2ccccc2)c(=S)n1-c1ccccc1)c1ccco1` came in with a TGI of over 100 µM.

The compound `O=c1ccn(-c2ccccn2)c(=O)n1-c1ccccn1` showed a TGI of over 100 µM.

For `CCC(=O)Nc1ccc(NS(=O)(=O)c2ccc(Cl)cc2)cc1`, the TGI was over 100 µM.

`S=c1[nH]nc(Cn2c3ccc(Br)cc3c3nc4ccccc4nc32)n1C1CCCCC1` came in with a TGI of 61 µM.

In turn, `COc1ccc2c(c1)-c1c(c3cc(OC)ccc3n1CCN(C)C)CC2` returned a TGI of 20.2 µM.

With `Oc1c(OCc2nnc(CCCCCCCCc3nnc(COc4ccc5ccccc5c4O)o3)o2)ccc2ccccc12`, the TGI was over 100 µM.

Turning to `COc1ccc(C2=C(Cl)C(=O)O/C2=C\c2ccc(OC)c(Br)c2)cc1Cl`, the TGI is over 100 µM.

`CCCCCCCCCCCCNC(=O)CCC(NC(=O)c1ccc(N(C)Cc2cnc3nc(N)nc(N)c3n2)cc1)C(=O)NCCCCCCCCCCCC` (centres undefined) had a TGI of over 100 µM.

As for `CCN(CCCCCCCCCCN1CC(=O)N(CCCCCCCCCCN(CC)Cc2ccccc2OC)CC1=O)Cc1ccccc1OC`, the GI50 is 1.46 µM and the TGI came to 2.9 µM.

Regarding `CC1CCc2sc3nc4n(c(=O)c3c2C1)CC(C)S4` (centres undefined), the TGI was 42 µM.

Take `Cc1cccc(NS(=O)(=O)c2ccc(N=Nc3c(O)c(C(=O)O)cc4ccccc34)cc2)n1`: the TGI is over 100 µM.

In turn, `C#CCOCC12C=CC(O1)C1COC(=O)C12` (centres undefined) came in with a TGI of over 100 µM.

As for `CCOc1snc(C(Cl)(Cl)Cl)c1Cl`, the TGI turned out to be 63.3 µM.

A further assay has as its system SN12C renal. The assay is described as follows: inhibition of tumour cell growth, NCI panel, 48 h.
Take `O=CN1CCN(C(=O)c2ccco2)C1=S`: the TGI was 15.8 µM.

Turning to `O=C1/C(=C/c2ccc(Cl)cc2)CCCc2ccc(F)cc21`, the GI50 was 20.1 µM and the TGI was 42.9 µM.

For `CC(=O)C1(O)CCC2(O)C3(O)CC=C4CC(O)CCC4(C)C3CC(OC(=O)c3ccc(O)cc3)C12C` (centres undefined), the TGI was over 100 µM.

Compound `COCC#C[C@@]1(O)CCCCC1CC(OC)OC` (some centres undefined) showed a TGI of over 100 µM.

As for `C=C1CC(COc2ccc3c(C)c(C)c(=O)oc3c2C)(c2ccccc2)OC1=O` (centres undefined), the TGI amounted to 11.3 µM.

Turning to `CC(=O)OCC(=O)O[C@@H]1[C@H]2[C@@H](OC(=O)c3ccccc3)[C@@H](C)C[C@]2(O)[C@H](OC(C)=O)[C@@]2(C)C[C@]1(OC(C)=O)C[C@H]1C(=O)C(C)(C)[C@@H](OC(C)=O)[C@@H]12`, the TGI was over 25 µM.

Compound `O=C(Sc1c(-c2ccccc2)c(=O)n(-c2ccccc2)c(=S)n1-c1ccccc1)c1ccco1` displayed a TGI of over 100 µM.

For the compound `O=c1ccn(-c2ccccn2)c(=O)n1-c1ccccn1`, the TGI was over 100 µM.

Regarding `CCC(=O)Nc1ccc(NS(=O)(=O)c2ccc(Cl)cc2)cc1`, the TGI was over 100 µM.

In the case of `S=c1[nH]nc(Cn2c3ccc(Br)cc3c3nc4ccccc4nc32)n1C1CCCCC1`, the TGI is over 56.6 µM.

`COc1ccc2c(c1)-c1c(c3cc(OC)ccc3n1CCN(C)C)CC2` registered a TGI of 26 µM.

With `Oc1c(OCc2nnc(CCCCCCCCc3nnc(COc4ccc5ccccc5c4O)o3)o2)ccc2ccccc12`, the TGI was over 100 µM.

With `CCCCCCCCCCCCNC(=O)CCC(NC(=O)c1ccc(N(C)Cc2cnc3nc(N)nc(N)c3n2)cc1)C(=O)NCCCCCCCCCCCC` (centres undefined), the TGI was over 100 µM.

Consider `CCN(CCCCCCCCCCN1CC(=O)N(CCCCCCCCCCN(CC)Cc2ccccc2OC)CC1=O)Cc1ccccc1OC`, for which the GI50 is 1.51 µM and the TGI turned out to be 3.57 µM.

The compound `CC1CCc2sc3nc4n(c(=O)c3c2C1)CC(C)S4` (centres undefined) returned a TGI of 53.7 µM.

`C#CCOCC12C=CC(O1)C1COC(=O)C12` (centres undefined) displayed a TGI of over 100 µM.

Turning to `CCOc1snc(C(Cl)(Cl)Cl)c1Cl`, the TGI came out at 89.7 µM.

In a further assay the test system is OVCAR-4 ovarian. Put plainly: inhibition of tumour cell growth, NCI panel, 48 h.
Turning to `O=CN1CCN(C(=O)c2ccco2)C1=S`, the TGI is 46.6 µM.

Turning to `O=C1/C(=C/c2ccc(Cl)cc2)CCCc2ccc(F)cc21`, the GI50 is 17.5 µM and the TGI worked out at 51.2 µM.

The compound `CC(=O)C1(O)CCC2(O)C3(O)CC=C4CC(O)CCC4(C)C3CC(OC(=O)c3ccc(O)cc3)C12C` (centres undefined) gave a TGI of over 100 µM.

Regarding `COCC#C[C@@]1(O)CCCCC1CC(OC)OC` (some centres undefined), the TGI is over 100 µM.

In the case of `C=C1CC(COc2ccc3c(C)c(C)c(=O)oc3c2C)(c2ccccc2)OC1=O` (centres undefined), the TGI turned out to be 4.82 µM.

As to `CC(=O)OCC(=O)O[C@@H]1[C@H]2[C@@H](OC(=O)c3ccccc3)[C@@H](C)C[C@]2(O)[C@H](OC(C)=O)[C@@]2(C)C[C@]1(OC(C)=O)C[C@H]1C(=O)C(C)(C)[C@@H](OC(C)=O)[C@@H]12`, the TGI is over 25 µM.

As for `O=C(Sc1c(-c2ccccc2)c(=O)n(-c2ccccc2)c(=S)n1-c1ccccc1)c1ccco1`, the TGI is over 100 µM.

Regarding `O=c1ccn(-c2ccccn2)c(=O)n1-c1ccccn1`, the TGI is over 100 µM.

Consider `CCC(=O)Nc1ccc(NS(=O)(=O)c2ccc(Cl)cc2)cc1`, for which the TGI is over 100 µM.

In turn, `S=c1[nH]nc(Cn2c3ccc(Br)cc3c3nc4ccccc4nc32)n1C1CCCCC1` had a TGI of over 100 µM.

Compound `COc1ccc2c(c1)-c1c(c3cc(OC)ccc3n1CCN(C)C)CC2` yielded a TGI of 33.1 µM.

For the compound `Oc1c(OCc2nnc(CCCCCCCCc3nnc(COc4ccc5ccccc5c4O)o3)o2)ccc2ccccc12`, the TGI is over 100 µM.

`COc1ccc(C2=C(Cl)C(=O)O/C2=C\c2ccc(OC)c(Br)c2)cc1Cl` came in with a TGI of over 100 µM.

The compound `CCCCCCCCCCCCNC(=O)CCC(NC(=O)c1ccc(N(C)Cc2cnc3nc(N)nc(N)c3n2)cc1)C(=O)NCCCCCCCCCCCC` (centres undefined) yielded a TGI of over 100 µM.

As to `CCN(CCCCCCCCCCN1CC(=O)N(CCCCCCCCCCN(CC)Cc2ccccc2OC)CC1=O)Cc1ccccc1OC`, the GI50 is 1.77 µM and the TGI came to 6.59 µM.

Turning to `CC1CCc2sc3nc4n(c(=O)c3c2C1)CC(C)S4` (centres undefined), the TGI was over 100 µM.

Compound `Cc1cccc(NS(=O)(=O)c2ccc(N=Nc3c(O)c(C(=O)O)cc4ccccc34)cc2)n1` returned a TGI of over 100 µM.

`C#CCOCC12C=CC(O1)C1COC(=O)C12` (centres undefined) had a TGI of over 100 µM.

Consider `CCOc1snc(C(Cl)(Cl)Cl)c1Cl`, for which the TGI was over 100 µM.

The subject of the next assay is SF-295 CNS. Put plainly: inhibition of tumour cell growth, NCI panel, 48 h.
`O=CN1CCN(C(=O)c2ccco2)C1=S` returned a TGI of 51.1 µM.

Take `O=C1/C(=C/c2ccc(Cl)cc2)CCCc2ccc(F)cc21`: the GI50 was 31.4 µM and the TGI was over 100 µM.

The compound `CC(=O)C1(O)CCC2(O)C3(O)CC=C4CC(O)CCC4(C)C3CC(OC(=O)c3ccc(O)cc3)C12C` (centres undefined) yielded a TGI of over 100 µM.

`COCC#C[C@@]1(O)CCCCC1CC(OC)OC` (some centres undefined): the TGI is over 100 µM.

Consider `C=C1CC(COc2ccc3c(C)c(C)c(=O)oc3c2C)(c2ccccc2)OC1=O` (centres undefined), for which the TGI is 19.2 µM.

As for `CC(=O)OCC(=O)O[C@@H]1[C@H]2[C@@H](OC(=O)c3ccccc3)[C@@H](C)C[C@]2(O)[C@H](OC(C)=O)[C@@]2(C)C[C@]1(OC(C)=O)C[C@H]1C(=O)C(C)(C)[C@@H](OC(C)=O)[C@@H]12`, the TGI is over 25 µM.

On to `O=C(Sc1c(-c2ccccc2)c(=O)n(-c2ccccc2)c(=S)n1-c1ccccc1)c1ccco1`, for which the TGI is over 100 µM.

Take `O=c1ccn(-c2ccccn2)c(=O)n1-c1ccccn1`: the TGI is over 100 µM.

As to `CCC(=O)Nc1ccc(NS(=O)(=O)c2ccc(Cl)cc2)cc1`, the TGI is over 100 µM.

As for `S=c1[nH]nc(Cn2c3ccc(Br)cc3c3nc4ccccc4nc32)n1C1CCCCC1`, the TGI was determined as 49.5 µM.

The compound `COc1ccc2c(c1)-c1c(c3cc(OC)ccc3n1CCN(C)C)CC2` came in with a TGI of 34.3 µM.

As for `Oc1c(OCc2nnc(CCCCCCCCc3nnc(COc4ccc5ccccc5c4O)o3)o2)ccc2ccccc12`, the TGI is over 100 µM.

`COc1ccc(C2=C(Cl)C(=O)O/C2=C\c2ccc(OC)c(Br)c2)cc1Cl`: the TGI turned out to be 35.1 µM.

`CCCCCCCCCCCCNC(=O)CCC(NC(=O)c1ccc(N(C)Cc2cnc3nc(N)nc(N)c3n2)cc1)C(=O)NCCCCCCCCCCCC` (centres undefined) gave a TGI of over 100 µM.

For the compound `CCN(CCCCCCCCCCN1CC(=O)N(CCCCCCCCCCN(CC)Cc2ccccc2OC)CC1=O)Cc1ccccc1OC`, the GI50 was 1.15 µM and the TGI came out at 3.02 µM.

`CC1CCc2sc3nc4n(c(=O)c3c2C1)CC(C)S4` (centres undefined) came in with a TGI of 52.6 µM.

On to `Cc1cccc(NS(=O)(=O)c2ccc(N=Nc3c(O)c(C(=O)O)cc4ccccc34)cc2)n1`, for which the TGI was over 100 µM.

In turn, `C#CCOCC12C=CC(O1)C1COC(=O)C12` (centres undefined) showed a TGI of over 100 µM.

Consider `CCOc1snc(C(Cl)(Cl)Cl)c1Cl`, for which the TGI stood at 74.7 µM.

The subject of the next assay is SK-OV-3 ovarian. Put plainly: inhibition of tumour cell growth, NCI panel, 48 h.
Turning to `O=CN1CCN(C(=O)c2ccco2)C1=S`, the TGI was 70.8 µM.

Take `O=C1/C(=C/c2ccc(Cl)cc2)CCCc2ccc(F)cc21`: the GI50 is 24.7 µM and the TGI came to 69.4 µM.

`CC(=O)C1(O)CCC2(O)C3(O)CC=C4CC(O)CCC4(C)C3CC(OC(=O)c3ccc(O)cc3)C12C` (centres undefined): the TGI was over 100 µM.

Take `COCC#C[C@@]1(O)CCCCC1CC(OC)OC` (some centres undefined): the TGI was over 100 µM.

As to `C=C1CC(COc2ccc3c(C)c(C)c(=O)oc3c2C)(c2ccccc2)OC1=O` (centres undefined), the TGI is 13.4 µM.

Consider `CC(=O)OCC(=O)O[C@@H]1[C@H]2[C@@H](OC(=O)c3ccccc3)[C@@H](C)C[C@]2(O)[C@H](OC(C)=O)[C@@]2(C)C[C@]1(OC(C)=O)C[C@H]1C(=O)C(C)(C)[C@@H](OC(C)=O)[C@@H]12`, for which the TGI is over 25 µM.

In the case of `O=C(Sc1c(-c2ccccc2)c(=O)n(-c2ccccc2)c(=S)n1-c1ccccc1)c1ccco1`, the TGI was over 100 µM.

As for `O=c1ccn(-c2ccccn2)c(=O)n1-c1ccccn1`, the TGI was over 100 µM.

Turning to `CCC(=O)Nc1ccc(NS(=O)(=O)c2ccc(Cl)cc2)cc1`, the TGI is over 100 µM.

The compound `S=c1[nH]nc(Cn2c3ccc(Br)cc3c3nc4ccccc4nc32)n1C1CCCCC1` showed a TGI of 83.7 µM.

As for `COc1ccc2c(c1)-c1c(c3cc(OC)ccc3n1CCN(C)C)CC2`, the TGI stood at 37.1 µM.

Take `Oc1c(OCc2nnc(CCCCCCCCc3nnc(COc4ccc5ccccc5c4O)o3)o2)ccc2ccccc12`: the TGI was over 100 µM.

`COc1ccc(C2=C(Cl)C(=O)O/C2=C\c2ccc(OC)c(Br)c2)cc1Cl` displayed a TGI of over 100 µM.

For `CCN(CCCCCCCCCCN1CC(=O)N(CCCCCCCCCCN(CC)Cc2ccccc2OC)CC1=O)Cc1ccccc1OC`, the GI50 was 1.83 µM and the TGI came to 3.68 µM.
